The record followed here is patent publication US7632972B2, “Compounds and methods for treatment of cancer and modulation of programmed cell death for melanoma and other cancer cells” (The Board of Trustees of the University of Illionis, priority 2003, dated 2009).

For this experiment, the system named is human tumor cell lines. As to the kind of experiment: NCI DTP 60 human tumor cell line screen (whole panel or cell lines not listed singly). Type of experiment: cell-based. Conditions: NCI panel of human cancer cell lines. From the text:
Selected compounds were identified for additional testing against a panel of human cancer cell lines maintained by the National Cancer Institute.
Potential anti-cancer agents are screened, and in certain instances were screened, using a screening system provided and performed by the National Cancer Institute (NCl). See http://dtp.nci.nih.gov/docs/misc/common_files/submit_compounds.html. The Developmental Therapeutics Program (DTP) of NCl operates an anti-cancer screening program. The program accepts both natural and synthetic compounds. For screening of natural products extracts, the Natural Products Branch can be contacted.
The operation of this screen utilizes 60 different human tumor cell lines, representing leukemia, melanoma and cancers of the lung, colon, brain, ovary, breast, prostate, and kidney. The aim is to prioritize for further evaluation, synthetic compounds or natural product samples showing selective growth inhibition or cell killing of particular tumor cell lines. […]
Following drug addition, the plates are incubated for an additional 48 h at 37° C., 5% CO2, 95% air, and 100% relative humidity. […] Bound stain is subsequently solubilized with 10 mM trizma base, and the absorbance is read on an automated plate reader at a wavelength of 515 nm. […]

On to `COc1cccc(CCNC(=O)CC(c2ccccc2)(c2ccccc2)c2ccccc2)c1` [Compound Z3], for which the “activity against colon cancer cells” value is listed as “significant activity” and the “activity against melanoma cells” value was “significant activity”.
